Earlier results as cited in patent US20140171511A1, “Cough Reducing Product” (priority 2011, published 2014).

Tests used:
[1] = relative to capsaicin, used to calculate equivalent dose
[2] = inhaled capsaicin as research tool, past 2 decades
[3] = system: IBS and gut pain sensitivity; settings: regular intake of capsaicin powder

Compound	Typical equivalent strength [1] [%]	serious adverse reactions [2]	IBS and gut pain sensitivity [3]
COc1cc(CNC(=O)CCCC/C=C/C(C)C)ccc1O [Capsaicin, 8-Methyl-N-vanillyl-trans-6-nonenamide]	100	no serious adverse reactions reported	improvement
COc1cc(CNC(=O)CCCCCC(C)C)ccc1O [Nordihydrocapsaicin]	10		
